# Experimental data taken from patent US20130142882A1, “METHODS AND COMPOSITIONS FOR TREATMENT, MODIFICATION AND MANAGEMENT OF BONE CANCER PAIN” (GOLDEN BIOTECHNOLOGY CORPORATION, priority 2011, published 2013).
# Several values for one entry are separate records, joined by “and”; a condition that tells them apart may be missing. Equal entries are not always repeated.
# Tested on: rat model of bone cancer pain (Walker 256 rat mammary gland carcinoma cells injected into the right tibia)
# Experiment: Mechanical allodynia (Von Frey test) in a rat model of bone cancer pain
# Type: in vivo, Rat (Sprague-Dawley)
# Description: The objective of this study was to assess the potential anti-nociceptive and anti-tumourigenic effects of Compound 1, at doses of 15, 30 and 45 mg/kg, in an animal model of bone cancer pain. Metastasis of cancer cells to the bone was modeled by injecting Walker 256 rat mammary gland carcinoma cells into the medullary cavity of the right tibia (Mao-Yinga, et al. A rat model of bone cancer pain induced by intra-tibia inoculation of Walker 256 mammary gland carcinoma cells. Biochem Biophys Res Commun 2006; 345: 1292-1298). The development of mechanical allodynia was monitored using an established behavioural test (Von Frey test). Treatment administration was chronic, from the day of surgery, and administered twice daily for 21 days to determine whether there was a prophylactic effect on the development of mechanical allodynia. Zoledronic acid was used as a reference substance. No regulatory test guidelines were applicable to this study.
# Rats have been studied in this model of bone cancer pain. The route of administration of Compound 1 and vehicle was oral. The doses of Compound 1 were 15, 30 and 45 mg/kg, twice a day (approximately 10 h apart) for 21 days.
# The dose of zoledronic acid was 30 μg/kg, as a single administration, every second day from the day of surgery, based on historical data. The route of administration of zoledronic acid was subcutaneous.
# The dose volume for test substance and vehicle treatments was 5 mL/kg. The vehicle for Compound 1 was corn oil. Each rat allocated to test substance or vehicle treatments received an oral dose, by gavage, twice daily (approximately 8 am and 6 pm) for 21 consecutive days. The dose volume for the reference substance treatment was 1 mL/kg. Each rat allocated to reference substance treatment received a single subcutaneous dose, by injection (approximately 8 am) every second day from the day of surgery.
# Cell preparation. Walker 256 rat mammary gland carcinoma cells (obtained from the American Type Culture Collection (ATCC)) were harvested from sub-confluent cultures growing in vitro and the number of viable cells determined. Cells were then re-suspended in sterile phosphate buffered saline (PBS) at a concentration of 4×10^5 cells. Female Sprague-Dawley rats were intratibially injected in the right leg with 4×10^5 Walker 256 rat mammary gland carcinoma cells in a volume of 6 μL as detailed in Surgical procedure below.
# Baseline behavioural testing. The rats were moved to the procedure room 5 days prior to behavioural testing. The rats were then housed, dosed and observed in the procedure room. The behavioural test was performed on all rats on 2 separate occasions prior to surgery, to establish baseline values. Pre-surgery baseline values were taken as the data from the final (second) day of testing (the data from the first day of testing was not included but classed as part of the acclimatisation).
# Mechanical allodynia (Von Frey test): Each animal was placed in a wire mesh cage and a series of Von Frey filaments were applied to the plantar surface of the hind paw, from below. The filaments were applied in ascending order (starting with the weakest force), and the withdrawal threshold for both the left and right hind paws were evaluated. Each filament was indented on the mid-plantar surface of the foot to the point where it just started to bend; this was repeated approximately 8 to 10 times per filament at a frequency of approximately 1 Hz. The withdrawal threshold was defined as the lowest force of two or more consecutive Von Frey filaments to elicit a reflex withdrawal response (i.e. a brief paw flick).
# Surgical procedure. The animals were surgically prepared over 2 days. Each rat was anaesthetised as necessary with isofluorane in […]. The surface around the incision site was shaved and sterilised. Under aseptic conditions, an incision was made in the skin over the top of the right tibia to expose the tibia head with minimal damage. […]
# [1] = 15 mg/kg p.o. twice daily, Day 6, left paw
# [2] = 15 mg/kg p.o. twice daily, Day 6, right paw
# [3] = 15 mg/kg p.o. twice daily, Day 12, left paw
# [4] = 15 mg/kg p.o. twice daily, Day 12, right paw
# [5] = 15 mg/kg p.o. twice daily, Day 14, left paw
# [6] = 15 mg/kg p.o. twice daily, Day 14, right paw
# [7] = 15 mg/kg p.o. twice daily, Day 19, left paw
# [8] = 15 mg/kg p.o. twice daily, Day 19, right paw
# [9] = 15 mg/kg p.o. twice daily, Day 21, left paw
# [10] = 15 mg/kg p.o. twice daily, Day 21, right paw
# [11] = 15 mg/kg p.o. twice daily, Pre-Surgery, left paw
# [12] = 15 mg/kg p.o. twice daily, Pre-Surgery, right paw
# [13] = 30 mg/kg p.o. twice daily, Day 6, left paw
# [14] = 30 mg/kg p.o. twice daily, Day 6, right paw
# [15] = 30 mg/kg p.o. twice daily, Day 12, left paw
# [16] = 30 mg/kg p.o. twice daily, Day 12, right paw
# [17] = 30 mg/kg p.o. twice daily, Day 14, left paw
# [18] = 30 mg/kg p.o. twice daily, Day 14, right paw
smiles,measurement,setting,value
"COC1=C(OC)C(O)C(C/C=C(\C)CC/C=C(\C)CCC=C(C)C)C(C)C1=O (stereo not drawn) [Compound 1, 4-hydroxy-2,3-dimethoxy-6-methyl-5-(3,7,11-trimethyldodeca-2,6,10-trienyl)cyclohex-2-enone]",Withdrawal Threshold (Log 10 (force (g) × 10 000)) on Day Post-Operative,[1],5.33 Log 10 (force (g) × 10 000)
same,Withdrawal threshold (g) on day post-operative,[1],21.65 g
same,Withdrawal Threshold (Log 10 (force (g) × 10 000)) on Day Post-Operative,[2],5.31 Log 10 (force (g) × 10 000)
same,Withdrawal threshold (g) on day post-operative,[2],20.81 g
same,Withdrawal Threshold (Log 10 (force (g) × 10 000)) on Day Post-Operative,[3],5.19 Log 10 (force (g) × 10 000)
same,Withdrawal threshold (g) on day post-operative,[3],16.27 g
same,Withdrawal Threshold (Log 10 (force (g) × 10 000)) on Day Post-Operative,[4],4.99 Log 10 (force (g) × 10 000)
same,Withdrawal threshold (g) on day post-operative,[4],11.12 g
same,Withdrawal Threshold (Log 10 (force (g) × 10 000)) on Day Post-Operative,[5],5.18 Log 10 (force (g) × 10 000)
same,Withdrawal threshold (g) on day post-operative,[5],16.61 g
same,Withdrawal Threshold (Log 10 (force (g) × 10 000)) on Day Post-Operative,[6],4.91 Log 10 (force (g) × 10 000)
same,Withdrawal threshold (g) on day post-operative,[6],9.97 g
same,Withdrawal Threshold (Log 10 (force (g) × 10 000)) on Day Post-Operative,[7],5.08 Log 10 (force (g) × 10 000)
same,Withdrawal threshold (g) on day post-operative,[7],13.83 g
same,Withdrawal Threshold (Log 10 (force (g) × 10 000)) on Day Post-Operative,[8],4.76 Log 10 (force (g) × 10 000)
same,Withdrawal threshold (g) on day post-operative,[8],8.36 g
same,Withdrawal Threshold (Log 10 (force (g) × 10 000)) on Day Post-Operative,[9],5.06 Log 10 (force (g) × 10 000)
same,Withdrawal threshold (g) on day post-operative,[9],13.74 ± 2.42 g and 13.74 g
same,Withdrawal Threshold (Log 10 (force (g) × 10 000)) on Day Post-Operative,[10],4.80 Log 10 (force (g) × 10 000)
same,Withdrawal threshold (g) on day post-operative,[10],7.82 ± 1.43 g and 7.82 g
same,Withdrawal Threshold (Log 10 (force (g) × 10 000)) on Day Post-Operative,[11],5.33 Log 10 (force (g) × 10 000)
same,Withdrawal threshold (g) on day post-operative,[11],21.79 g
same,Withdrawal Threshold (Log 10 (force (g) × 10 000)) on Day Post-Operative,[12],5.33 Log 10 (force (g) × 10 000)
same,Withdrawal threshold (g) on day post-operative,[12],21.79 g
same,Withdrawal Threshold (Log 10 (force (g) × 10 000)) on Day Post-Operative,[13],5.35 Log 10 (force (g) × 10 000)
same,Withdrawal threshold (g) on day post-operative,[13],22.55 g
same,Withdrawal Threshold (Log 10 (force (g) × 10 000)) on Day Post-Operative,[14],5.32 Log 10 (force (g) × 10 000)
same,Withdrawal threshold (g) on day post-operative,[14],21.02 g
same,Withdrawal Threshold (Log 10 (force (g) × 10 000)) on Day Post-Operative,[15],5.24 Log 10 (force (g) × 10 000)
same,Withdrawal threshold (g) on day post-operative,[15],18.34 g
same,Withdrawal Threshold (Log 10 (force (g) × 10 000)) on Day Post-Operative,[16],5.00 Log 10 (force (g) × 10 000)
same,Withdrawal threshold (g) on day post-operative,[16],11.15 g
same,Withdrawal Threshold (Log 10 (force (g) × 10 000)) on Day Post-Operative,[17],5.16 Log 10 (force (g) × 10 000)
same,Withdrawal threshold (g) on day post-operative,[17],15.71 g
same,Withdrawal Threshold (Log 10 (force (g) × 10 000)) on Day Post-Operative,[18],4.86 Log 10 (force (g) × 10 000)
same,Withdrawal threshold (g) on day post-operative,[18],8.55 g
